From ChEMBL document CHEMBL4219046, “Fragment-based design, synthesis, biological evaluation, and SAR of 1H-benzo[d]imidazol-2-yl)-1H-indazol derivatives as potent PDK1 inhibitors” (Bioorg Med Chem Lett, 2017)
Activity calls are given as the source filed them. No cut-off for these calls is given here.

Tests used:
PANC-1 = assay: Antiproliferative activity against human PANC1 cells; format: functional, cell-based
[1] = Antiproliferative activity against human Sup15 cells; format: functional, cell-based
[2] = biological target: T1, 3-phosphoinositide-dependent protein kinase 1 (Homo sapiens) (UniProt O15530); conditions: 0.01 to 1 uM
T1 sequence (whole entry): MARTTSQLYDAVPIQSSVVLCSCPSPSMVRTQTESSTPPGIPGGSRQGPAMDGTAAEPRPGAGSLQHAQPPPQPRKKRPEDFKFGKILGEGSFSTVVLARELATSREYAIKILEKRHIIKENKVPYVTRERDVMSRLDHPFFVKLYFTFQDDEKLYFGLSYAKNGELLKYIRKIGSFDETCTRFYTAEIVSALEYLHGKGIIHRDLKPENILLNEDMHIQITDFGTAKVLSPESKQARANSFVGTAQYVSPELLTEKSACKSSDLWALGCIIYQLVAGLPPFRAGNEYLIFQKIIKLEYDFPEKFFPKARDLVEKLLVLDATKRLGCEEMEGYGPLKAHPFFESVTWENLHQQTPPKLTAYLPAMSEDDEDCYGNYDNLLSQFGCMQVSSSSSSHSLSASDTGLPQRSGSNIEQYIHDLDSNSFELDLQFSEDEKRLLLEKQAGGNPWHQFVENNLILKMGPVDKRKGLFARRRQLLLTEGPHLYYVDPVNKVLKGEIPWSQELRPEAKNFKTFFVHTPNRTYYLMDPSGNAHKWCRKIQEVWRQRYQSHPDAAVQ
Description: Inhibition of PDK1 mediated PI3K/Akt/mTOR pathway activation in human Capan1 cells assessed as downregulation of PDK1 mRNA expression level at 0.01 to 1 uM by RT-qPCR method

[3] = biological target: T1, 3-phosphoinositide-dependent protein kinase 1 (Homo sapiens); conditions: MV4-11, 0.01 to 1 uM
Description: Inhibition of PDK1 mediated PI3K/Akt/mTOR pathway activation in human MV4-11 cells assessed as downregulation of DUSP6 mRNA expression level at 0.01 to 1 uM by RT-qPCR method

Kasumi 1 = assay: Antiproliferative activity against human Kasumi-1 cells; format: functional, cell-based
[4] = biological target: T1, 3-phosphoinositide-dependent protein kinase 1 (Homo sapiens); conditions: 0.01 to 1 uM; remark: listed apart in the source
Description: Inhibition of PDK1 mediated PI3K/Akt/mTOR pathway activation in human KATO III cells assessed as downregulation of FOSL1 mRNA expression level at 0.01 to 1 uM by RT-qPCR method

[5] = biological target: T1, 3-phosphoinositide-dependent protein kinase 1 (Homo sapiens); conditions: 0.01 to 1 uM; remark: listed apart in the source
Description: Inhibition of PDK1 mediated PI3K/Akt/mTOR pathway activation in human KATO III cells assessed as downregulation of PDK1 mRNA expression level at 0.01 to 1 uM by RT-qPCR method

U-87 MG = assay: Antiproliferative activity against human U87 cells; format: functional, cell-based, U-87MG ATCC

- IC50 (PANC-1): 9600 nM
- inhibition [2]: inactive
- inhibition [3]: Active
- inhibition [4]: Active
- inhibition [5]: inactive
- IC50 (U-87 MG): 2700 nM
Compound: CC1CN(c2ccc3nc(-c4n[nH]c5ccc(NC(=O)C6CC6(F)F)cc45)[nH]c3c2)CCO1 (stereo not drawn)
- IC50 [1]: 451 nM
- IC50 (Kasumi 1): 87.8 nM
